Values joined by “and” are separate entries in the source; they are usually repeats but may differ in a detail not shown here. Equal entries are not always repeated.
System: Iba1
Test: IHC of Iba1 (microglia activation) in 5xFAD brain sections
Type: in vivo, mouse
Settings: for Iba1 normalized volume (individual mice): CA1, 5xFAD 1 month; for Figure 9D, IHC signal: individual animals; for Iba1 vs vehicle: cortex, 5xFAD 1 month
Text: Following the behavioral experiments, we assessed brain pathologies associated with AD present in the 5xFAD mice ([37]). Therefore, 5 days following the last behavioral experiment, and 1 month after the start of YB-537 consumption, mice were sacrificed, and coronal brain sections were used for IHC. Since the CA1 region of the hippocampus is affected during AD pathogenesis ([37]), and this brain region is involved in the behavioral paradigms used here, we acquired images of CA1. This was done with an Olympus IX83 confocal microscope using the same settings, antibodies, and exposures in all mice. Images were analyzed using Imaris (Bitplane; see methods). For each mouse, 3 coronal sections were used per antibody. In each section, the same region of CA1 was acquired, using the same image frame size and resolution, at all possible depths of the section — using a Z-stack of the whole section — to allow measurement of the fluorescent antibody marker volume, which was normalized to the brain volume from which it was taken. First, we measured oxidative stress, as indicated by 4-HNE ([38]) (Abcam, ab48506).
Perfused and fixed brain slices were blocked with 10% normal donkey serum (DNS) and 0.2% triton (Sigma-Aldrich) in PBS. Antibodies, including 4-HNE (AbCam, ab48506), Iba1 (AbCam, ab5076), AT-8 (Thermo, MN1020), Amyloid β (AbCam, ab201060), diluted in PBS with 10% DNS, were incubated at 4°C overnight. Secondary antibodies including donkey-anti-goat Alexa Fluor 568 (AbCam, ab175704), donkey-anti-mouse Cy 5 (Jackson Immuno Research, 715-175-151), and donkey-anti-rabbit DyLight 488 (AbCam, ab98488) all diluted 1:500 in PBS with 1% BSA, were applied to the slices at RT for 2 hours the next day. Slices were mounted onto glass slides using DAPI containing Vectashield (H-1200). Images were taken using a confocal microscope (Olympus IX83). Three slices were used per mouse per antibody. Tiling images of the dorsal CA1 and cortex (Bregma: –1.58mm to –2.30mm) were taken using ×20 objective, acquiring a Z-stack of the whole section. Analysis of the images was done blind by an experimenter unaware of the experimental conditions or details, using Imaris (Bitplane) software. A surface reconstruction module was used to extract the data as volumes of the used markers (4-HNE, phospho-tau, amyloid β, GFAP, and Iba1). Marker volume and intensity were normalized to the corresponding brain volume. The normalized value was averaged for each triplicate and presented here. […]
Brains were then briefly removed and placed in chilled, 4% PFA for 48 h, f oll owe d by immersion in 30% sucrose in 0.1 M PBS for a furt her 48 h. Bra i ns wer e t h e n stored at -80°C, until t he y were sliced into 40µm coronal sections usinga Lei ca CM 1950cryostat. Sli ces were then washed x3 in PBS and bl oc ke d for 1 h at RT using 10% normal donkey serum (DNS) and 0.2% triton (Sigma-Aldrich) in PBS. Antibodies, including 4- HNE (1:500, AbCam, ab48506), Iba1 (1:2,000, AbCam, ab5076), GFAP (Abcam, ab53554), phospho- tau (1:1,000, Thermo, MN1020) and amyloid β (1:1,000, AbCam, ab201060) diluted in PBS with 10% DNS were incubated at 4°C overnight. The next day, the slices were washed x3 times in PBS, and secondary antibodies including donkey anti goat A l e x a Fluor 568 (AbCam, ab175704), donkey anti-mouse Cy 5 (Jackson Immuno Research, 715- 175- 151) and donkey anti-rabbit DyLight 488 (AbCam, ab98488) all diluted 1:500 in PBS with 1% BSA, were applied to the slices at RT for 2 h. Following the incubation, the slices were washed x3 times in PBS, mounted onto gl ass slides, were uniformly covered in DAPI containing Vectashield (H-1200) and coverslips were a dde d. […]

Cc1ccc(-c2cn3cccc(C)c3n2)cc1S(=O)(=O)N1CCNCC1 [YB-537]
Iba1 normalized volume (individual mice) (Females): 0.0305 and 0.0266 and 0.0346 and 0.0314 and 0.0200 and 0.0191 and 0.0158 | Iba1 normalized volume (individual mice) (Males): 0.0473 and 0.0384 and 0.0542 and 0.0369 and 0.0352 and 0.0318 and 0.0209 and 0.0414 and 0.0362 | Iba1 normalized volume (individual mice) (Males + Females): 0.0473 and 0.0384 and 0.0542 and 0.0369 and 0.0352 and 0.0314 and 0.0200 and 0.0191 and 0.0158 and 0.0305 and 0.0266 and 0.0346 and 0.0318 and 0.0209 and 0.0414 and 0.0362 | Figure 9D, IHC signal (Cortex): 0.0209 and 0.0186 and 0.0218 and 0.0206 and 0.0305 and 0.0198 and 0.0227 | Figure 9D, IHC signal (Hippocampus): 0.0213 and 0.0206 and 0.0202 and 0.0175 and 0.0174 and 0.0220 and 0.0296 and 0.0197 | Iba1 vs vehicle (females): significantly reduced | Iba1 vs vehicle (males): insignificantly reduced | Iba1 vs vehicle (total population): significantly reduced
